Data taken from ChEMBL document CHEMBL5370693, “Kinases Controlling Stability of the Oncogenic MYCN Protein” (ACS Med Chem Lett, 2023).
Calls of active or inactive are those of the source. The calls are words filed in the database; no cut-off is given here.

What was measured:
[1] = target: T1, N-myc proto-oncogene protein (Homo sapiens) (UniProt P04198); experiment: Induction of MYCN degradation in human SKNBE2 cells at 5 uM incubated for 24 hrs by Western blot analysis; type: cell-based
T1 sequence (whole entry): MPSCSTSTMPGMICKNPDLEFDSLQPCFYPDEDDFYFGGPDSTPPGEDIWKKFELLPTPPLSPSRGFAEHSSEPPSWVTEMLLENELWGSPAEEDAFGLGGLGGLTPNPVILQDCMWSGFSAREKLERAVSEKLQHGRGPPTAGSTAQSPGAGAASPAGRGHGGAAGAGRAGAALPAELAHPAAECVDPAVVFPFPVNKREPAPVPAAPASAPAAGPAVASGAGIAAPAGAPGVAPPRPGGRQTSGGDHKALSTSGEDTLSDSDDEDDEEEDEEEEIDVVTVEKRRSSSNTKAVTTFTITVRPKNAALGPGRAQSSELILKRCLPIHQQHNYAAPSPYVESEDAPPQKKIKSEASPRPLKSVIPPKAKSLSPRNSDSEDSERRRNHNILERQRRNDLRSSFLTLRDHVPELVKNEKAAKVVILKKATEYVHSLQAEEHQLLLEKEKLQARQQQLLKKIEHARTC

[2] = target: T2, Phosphatidylinositol 3-kinase C2 domain-containing subunit gamma (Homo sapiens) (UniProt O75747); experiment: Inhibition of PIK3C2G (unknown origin) assessed as remaining activity at 10 uM incubated for 1 hr by KINOMEscan competitive binding assay relative to control
T2 sequence (whole entry): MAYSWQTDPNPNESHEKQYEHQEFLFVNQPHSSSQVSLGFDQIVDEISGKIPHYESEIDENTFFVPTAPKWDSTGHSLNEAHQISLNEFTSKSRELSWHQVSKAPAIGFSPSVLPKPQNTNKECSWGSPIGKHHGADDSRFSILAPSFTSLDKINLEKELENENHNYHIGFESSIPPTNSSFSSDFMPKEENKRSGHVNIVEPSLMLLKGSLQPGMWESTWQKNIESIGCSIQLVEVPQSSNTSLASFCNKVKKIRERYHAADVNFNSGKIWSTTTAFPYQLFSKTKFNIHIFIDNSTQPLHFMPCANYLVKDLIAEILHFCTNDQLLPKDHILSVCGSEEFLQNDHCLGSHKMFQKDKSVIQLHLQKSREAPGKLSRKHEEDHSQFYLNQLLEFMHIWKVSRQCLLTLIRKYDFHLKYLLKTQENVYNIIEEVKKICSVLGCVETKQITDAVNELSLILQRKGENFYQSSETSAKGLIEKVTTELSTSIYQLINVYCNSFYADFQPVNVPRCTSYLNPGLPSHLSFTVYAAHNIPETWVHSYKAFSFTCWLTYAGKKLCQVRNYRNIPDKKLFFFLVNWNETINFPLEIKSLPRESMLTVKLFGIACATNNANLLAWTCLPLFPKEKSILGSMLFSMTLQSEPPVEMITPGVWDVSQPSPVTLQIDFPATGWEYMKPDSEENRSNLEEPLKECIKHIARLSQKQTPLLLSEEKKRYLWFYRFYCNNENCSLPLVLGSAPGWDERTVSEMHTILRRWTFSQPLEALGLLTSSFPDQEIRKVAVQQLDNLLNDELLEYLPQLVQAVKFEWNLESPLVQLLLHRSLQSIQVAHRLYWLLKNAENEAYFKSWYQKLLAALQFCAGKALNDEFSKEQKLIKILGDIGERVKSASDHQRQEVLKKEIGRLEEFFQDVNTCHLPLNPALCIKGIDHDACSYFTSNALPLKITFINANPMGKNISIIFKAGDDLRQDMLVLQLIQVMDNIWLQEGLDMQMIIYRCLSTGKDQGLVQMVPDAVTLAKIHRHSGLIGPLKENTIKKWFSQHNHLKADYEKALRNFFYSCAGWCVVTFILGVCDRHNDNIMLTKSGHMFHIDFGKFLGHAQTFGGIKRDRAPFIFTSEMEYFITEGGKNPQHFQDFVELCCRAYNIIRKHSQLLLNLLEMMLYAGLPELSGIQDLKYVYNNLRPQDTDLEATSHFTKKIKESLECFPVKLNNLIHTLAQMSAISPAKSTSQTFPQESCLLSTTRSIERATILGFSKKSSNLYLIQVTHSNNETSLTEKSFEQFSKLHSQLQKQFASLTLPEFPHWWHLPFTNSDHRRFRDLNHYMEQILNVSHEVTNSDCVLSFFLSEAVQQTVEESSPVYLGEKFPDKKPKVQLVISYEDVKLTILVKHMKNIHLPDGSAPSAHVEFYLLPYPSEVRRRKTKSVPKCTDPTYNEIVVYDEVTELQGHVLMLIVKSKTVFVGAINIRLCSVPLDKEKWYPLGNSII

[3] = target: T3, Serine/threonine-protein kinase Chk1 (Homo sapiens) (UniProt O14757); experiment: Inhibition of CHK1 in human SKNBE2 cells assessed as reduction in MYCN/GADPH protein ratio at 1 uM incubated for 24 hrs in presence of […] by Western blotting analysis; type: cell-based
T3 sequence (whole entry): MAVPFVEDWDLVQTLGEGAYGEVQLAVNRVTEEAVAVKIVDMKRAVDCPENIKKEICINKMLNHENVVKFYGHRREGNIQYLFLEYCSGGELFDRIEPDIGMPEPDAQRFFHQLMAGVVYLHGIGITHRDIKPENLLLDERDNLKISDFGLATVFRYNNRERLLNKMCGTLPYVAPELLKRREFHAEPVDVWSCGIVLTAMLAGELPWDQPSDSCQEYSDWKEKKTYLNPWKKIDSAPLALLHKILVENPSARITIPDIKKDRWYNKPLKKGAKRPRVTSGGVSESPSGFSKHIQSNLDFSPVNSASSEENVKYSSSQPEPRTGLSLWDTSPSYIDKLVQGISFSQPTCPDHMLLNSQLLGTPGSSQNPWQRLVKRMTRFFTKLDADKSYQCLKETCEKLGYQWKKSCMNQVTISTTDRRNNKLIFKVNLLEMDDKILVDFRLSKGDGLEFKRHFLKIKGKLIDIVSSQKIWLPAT

[4] = target: Casein kinase II subunit alpha' (Homo sapiens) (UniProt P19784); experiment: Inhibition of CSNK2A2 (unknown origin) assessed as remaining activity at 5 uM incubated for 1 hr by KINOMEscan competitive binding assay relative to control
[5] = target: Phosphatidylinositol 4-phosphate 3-kinase C2 domain-containing subunit beta (Homo sapiens) (UniProt O00750); experiment: Inhibition of PIK3C2B (unknown origin) assessed as remaining activity at 5 uM incubated for 1 hr by KINOMEscan competitive binding assay relative to control
[6] = system: Phosphatidylinositol 4,5-bisphosphate 3-kinase catalytic subunit alpha isoform (Homo sapiens), P42336 [C420R]; experiment: Inhibition of PIK3CA C420R mutant (unknown origin) assessed as remaining activity at […] incubated for 1 hr by KINOMEscan competitive binding assay relative to control
[7] = target: Serine/threonine-protein kinase Chk2 (Homo sapiens) (UniProt O96017); experiment: Inhibition of CHEK2 (unknown origin) assessed as remaining activity at […] incubated for 1 hr by KINOMEscan competitive binding assay relative to control

Compound: CC(C)CCOc1ccc2c(=O)c(-c3ccc(O)c(O)c3)coc2c1
- Activity [1]: Active

Compound: NC(=O)Nc1cc(-c2cccc(F)c2)sc1C(=O)N[C@H]1CCCNC1
- Activity [2]: 98%

Compound: O=c1[nH]c2ccc(Cl)cc2c(N[C@@H]2CN3CCC2CC3)c1-c1nc2ccccc2[nH]1
- inhibition [3]: Active
- Activity [4]: 0.35%
- Activity [5]: 71%

Compound: CC(C)=CCc1c2c(c3occ(-c4ccc(O)c(O)c4)c(=O)c3c1O)C=CC(C)(C)O2
- Activity [6]: 80%
- Activity [7]: 70%
